According to patent publication US8778871B2 (Takeda Pharmaceutical Company Limited, priority 2004, dated 2014):
Non-standard residues stand in square brackets, D forms with d. Residues, ends and D or L forms follow the SMILES beside them. *: point of attachment. Propanoyl(3-indol-3-yl) = O=C(CCc1c[nH]c2ccccc12)*; 2Nal = N[C@@H](Cc1ccc2ccccc2c1)C(=O)O; Arg(Me) = CNC(=N)NCCC[C@H](N)C(=O)O; X4 = NC(=S)[C@H](Cc1ccccc1)N*; azaGly = NNC(=O)O

Experiments:
hOT7T175 [1] = biological target: T1, hOT7T175 (Homo sapiens, UniProt Q969F8, L364H); type: cell-based; settings: hOT7T175/CHO, FLIPR, evaluation for 40 seconds after initiation of the reaction
T1 construct: expressed in transfected cells
Experimental: The intracellular Ca ion level-increasing activity was measured using FLIPR as in TEST EXAMPLE 2.

hOT7T175 [2] = biological target: T1, hOT7T175; test: Intracellular Ca ion level-increasing activity using FLIPR (180 seconds; specific activity to Metastin (1-54)); type: cell-based; settings: hOT7T175/CHO, relative to Metastin (1-54) = 1

T1 sequence (Q969F8 whole entry L364H): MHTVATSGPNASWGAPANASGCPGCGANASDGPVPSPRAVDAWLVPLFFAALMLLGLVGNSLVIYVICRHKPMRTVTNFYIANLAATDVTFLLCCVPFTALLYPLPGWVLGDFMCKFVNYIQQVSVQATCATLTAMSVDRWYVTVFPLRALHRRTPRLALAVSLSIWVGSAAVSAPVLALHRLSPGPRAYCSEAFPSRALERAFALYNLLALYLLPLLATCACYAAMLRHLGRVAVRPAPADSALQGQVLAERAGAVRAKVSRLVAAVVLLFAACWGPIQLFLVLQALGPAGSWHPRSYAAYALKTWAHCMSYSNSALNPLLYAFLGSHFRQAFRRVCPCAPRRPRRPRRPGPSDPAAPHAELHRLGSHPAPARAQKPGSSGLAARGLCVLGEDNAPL

Row | SMILES | Specific Act. (EC50/MS10 EC50) (hOT7T175 [1]) | Specific Act. (intracellular Ca ion level-increasing activity, specific activity to Metastin (1-54)) (hOT7T175 [2])
1 | CC(C)C[C@H](NC(=O)CNC(=O)[C@H](Cc1ccccc1)NC(=O)[C@H](CO)NC(=O)[C@H](CC(N)=O)NC(=O)[C@H](Cc1c[nH]c2ccccc12)NC(=O)[C@H](CC(N)=O)NC(=O)[C@@H](N)Cc1ccc(O)cc1)C(=O)N[C@@H](CCCNC(=N)N)C(=O)N[C@@H](Cc1ccccc1)C(N)=S [Compound No. 128] (H-YNWNSFGLR-X4) | 0.5 | 10
2 | CNC(=N)NCCC[C@H](NC(=O)[C@H](CC(C)C)NC(=O)NNC(=O)[C@H](Cc1ccccc1)NC(=O)[C@H](CO)NC(=O)[C@H](CC(N)=O)NC(=O)[C@H](Cc1c[nH]c2ccccc12)NC(=O)[C@H](CC(N)=O)NC(=O)[C@H](N)Cc1ccc(O)cc1)C(=O)N[C@@H](Cc1ccccc1)C(N)=O [Compound No. 232, D-Tyr-Asn-Trp-Asn-Ser-Phe-AzaGly-Leu-Arg(Me)-Phe-NH2] | 3.9 | 3
3 | CC(C)C[C@H](NC(=O)CNC(=O)[C@H](Cc1ccc2ccccc2c1)NC(=O)[C@H](CO)NC(=O)[C@H](CC(N)=O)NC(=O)[C@H](Cc1c[nH]c2ccccc12)NC(=O)[C@H](CC(N)=O)NC(=O)[C@@H](N)Cc1ccc(O)cc1)C(=O)N[C@@H](CCCNC(=N)N)C(=O)N[C@@H](Cc1ccccc1)C(N)=O [Compound No. 152, Tyr-Asn-Trp-Asn-Ser-Nal(2)-Gly-Leu-Arg-Phe-NH2] (H-YNWNS[2Nal]GLRF-NH2) | 1.4 | 5
4 | CC[C@H](C)[C@H](NC(=O)[C@H](CC(N)=O)NC(=O)[C@H](N)Cc1ccc(O)cc1)C(=O)N[C@@H](CC(N)=O)C(=O)N[C@@H](CO)C(=O)N[C@@H](Cc1ccccc1)C(=O)NCC(=O)N[C@@H](CC(C)C)C(=O)N[C@@H](CCCNC(=N)NC)C(=O)N[C@@H](Cc1ccccc1)C(N)=O [Compound No. 206] (H-[dY]NINSFGL[Arg(Me)]F-NH2) | 4.8 | 10
5 | CNC(=N)NCCC[C@H](NC(=O)[C@H](CC(C)C)NC(=O)CNC(=O)[C@H](Cc1ccccc1)NC(=O)[C@H](CO)NC(=O)[C@H](CC(N)=O)NC(=O)[C@H](Cc1c[nH]c2ccccc12)NC(=O)[C@H](N)Cc1ccc(O)cc1)C(=O)N[C@@H](Cc1ccccc1)C(N)=O [Compound No. 217] (H-[dY]WNSFGL[Arg(Me)]F-NH2) | 3.1 | 20
6 | CNC(=N)NCCC[C@H](NC(=O)[C@H](CC(C)C)NC(=O)CNC(=O)[C@H](Cc1ccccc1)NC(=O)[C@H](CO)NC(=O)[C@H](CC(N)=O)NC(=O)[C@H](Cc1c[nH]c2ccccc12)NC(=O)[C@H](CC(N)=O)NC(=O)[C@H](N)Cc1ccc(O)cc1)C(=O)N[C@@H](Cc1c[nH]c2ccccc12)C(N)=O [Compound No. 174] (H-[dY]NWNSFGL[Arg(Me)]W-NH2) | 2.3 | 10
7 | CC(C)C[C@H](NC(=O)CNC(=O)[C@H](Cc1ccccc1)NC(=O)[C@H](CO)NC(=O)[C@H](CC(N)=O)NC(=O)CCc1c[nH]c2ccccc12)C(=O)N[C@@H](CCCNC(=N)N)C(=O)N[C@@H](Cc1ccccc1)C(N)=O [Compound No. 114, 3-(3-Indolyl)propionyl-Asn-Ser-Phe-Gly-Leu-Arg-Phe-NH2] ({Propanoyl(3-indol-3-yl)}-NSFGLRF-NH2) | 4.1 | 3
8 | CNC(=N)NCCC[C@H](NC(=O)[C@H](CC(C)C)NC(=O)NNC(=O)[C@H](Cc1ccccc1)NC(=O)[C@H](CO)NC(=O)[C@H](CC(N)=O)NC(=O)[C@@H](Cc1c[nH]c2ccccc12)NC(=O)[C@H](N)Cc1ccc(O)cc1)C(=O)N[C@@H](Cc1ccccc1)C(N)=O [Compound No. 242, D-Tyr-D-Trp-Asn-Ser-Phe-AzaGly-Leu-Arg(Me)-Phe-NH2] (H-[dY][dW]NSF[azaGly]L[Arg(Me)]F-NH2) | 1.4 | 2
